# Laboratory results as given in US11696924B2, “Combination therapy using PDK1 and PI3K inhibitors” (MEMORIAL SLOAN-KETTERING CANCER CENTER, priority 2015, dated 2023).
# “Also recorded” adds a separate entry of the source.
# How the values were obtained:
# [1] = system: pAKT (S473, T308); assay: Western blot of AKT phosphorylation; type: cell-based
# Description: (§3) For western blot analysis proteins were extracted in RIPA buffer supplemented with protease and phosphatase inhibitors (Roche). Protein lysates were separated using SDS-PAGE gels and transferred to a PVDF membrane. Then, membranes were probed using specific antibodies. PDK1, pAKT (S473), pAKT (T308), pS6K (T389), pS6 (S240/4), pS6 (235/6), p4EBP1 (S65), PARP, Actin, pRSK (S227), cleaved Caspase 3, pFOXO1/3 (T24/T32), SGK1, SGK2, SGK3, pNDRG1 (T346), NDRG1, Flag, HA, and phospho-RXRXX(S/T) (SEQ ID NO: 1) were from Cell Signaling Technology (CST).
# [2] = system: SGK1; assay: kinase activity and phosphorylation of immunoprecipitated endogenous SGK1; type: cell-based; settings: HCC1954, 4 hr, Crosstide substrate
# Method: (§1) In vitro kinase activity of endogenous SGK1 and AKT was assayed by measuring [γ-32P] ATP incorporation into Crosstide substrate peptide [[…]] […] SGK1 and AKT were immunoprecipitated from HCC1954 cell line 4 hr after treatment. Immunoprecipitates were washed once with lysis buffer containing 500 mM NaCl, once with lysis buffer, and twice with Buffer A (50 mM Tris pH 7.5, 0.1 mM EGTA). Reactions were carried out in 40 μL total volume containing 0.1 mM [γ-32P] ATP (400-1000 cpm/pmol), 10 mM magnesium acetate, and 30 μM Crosstide peptide. Reactions were terminated by adding 10 μL […] EDTA. 40 μL of the reaction mix was spotted on P81 paper, which was immediately immersed into 50 mM ortophosphoric acid and washed several times. Papers were rinsed in acetone and air dried. Radioactivity was quantified by Cerenkov counting. One unit of enzyme activity was defined as the amount of enzyme that catalyzes incorporation of 1 nmol of [γ-32P] ATP into the substrate over one minute.
# [3] = system: HCC1954 xenografts; assay: HCC1954 in vivo xenograft; design: species or system mice
# Method: Animals were maintained and treated in accordance with Institutional Guidelines of Memorial Sloan Kettering Cancer Center (Protocol number 12-10-019). 5×10^6 cells in 1:1 PBS/Matrigel (Corning) were injected subcutaneously into six-week-old female athymic Foxn1^nu nude mice.
# When tumors reached a volume of ˜150 mm^3 mice were randomized, treated, and tumors were measured twice a week during a month. At least 10 tumors per group were used in all the studies. […] Tumors were harvested at the end of the experiment three hours after the last dosage, fixed in 4% formaldehyde in PBS, and paraffin-embedded. […] Primary staining was followed by 60 minutes incubation with biotinylated goat anti-rabbit IgG (Vector labs) 1:200. Blocker D, Streptavidin-HRP and DAB detection kit (Ventana Medical Systems) were used according to the manufacturer instructions.
# [4] = system: cap-dependent translation; assay: m7GTP pull down, cap-dependent translation; type: cell-based; settings: HCC1954 shPDK1, BYL719 1 μM, 4 h
# Method: 2 million cells were seeded in 10 cm plates and treated accordingly 12 hr after seeding. Lysates were prepared using m7GTP pull down buffer (50 mM Hepes, pH 7.4, 75 mM NaCl, 10 mM MgCl2, 1 mM DTT, 8 mM EGTA, 10 mM β-glycerophosphate, 0.5 mM Na3VO4, 0.5% Triton X-100) supplemented with protease and phosphatase inhibitors. Lysates were centrifuged at 13000 rpm for 10 min and supernatants were rotated for 2 h at 4° C. with 7-methyl-GTP-Sepharose or control Sepharose beads (Jena Bioscience). Beads were washed three times with m^7GTP pull down buffer, resuspended in Laemmli buffer, and associated proteins were detected by Western blot.
# [5] = system: PIK3CA-mutant breast cancer; assay: clinical trial NCT01870505, PIK3CA-mutant breast cancer; type: in vivo, patients; settings: with an aromatase inhibitor
# Description: We then explored whether SGK1 and pNDRG1 expression correlate with clinical outcome to PI3Kα inhibition by analyzing PIK3CA-mutant breast cancer samples from 18 patients treated with BYL719 in combination with an aromatase inhibitor (NCT01870505). Three of these tumors expressed high levels of SGK1 mRNA while the remaining 15 had medium/low levels of SGK1 mRNA. […] This was in agreement with the longer time to disease progression of this subset of patients when compared to the SGK1-high/pNDRG1-positive cohort (FIG. 4H, I).
# The MSKCC Institutional Review Board approved the study. Pre-treatment FFPE blocks from patients treated with the PI3Kα inhibitor BYL719 enrolled in the clinical trial NCT01870505 conducted at MSKCC were used for IHC. Informed consent was obtained from all subjects.
# For the study of patients treated with the PI3Kα inhibitor BYL719, pre-treatment biopsy FFPE blocks from patients enrolled in the clinical trial NCT01870505 conducted at MSKCC were used for IHC as described above. For the selection of the patients, PIK3CA and other tumor genomic drivers were analyzed using MSK-IMPACT (Cheng et al., 2015). […] SGK1 mRNA levels were determined using next-generation sequencing (NGS) and the expression results were presented as raw Reads Per Kilobase of transcript per Million mapped reads (RPKM). Mean and standard deviation (SD) was calculated across all the samples with available NGS data and overexpression of SGK1 was called for the samples with mRNA levels greater than mean+1SD. For 6 samples, RNA quality and quantity was not optimal for NGS. In these cases, SGK1 mRNA levels were determined using RT-qPCR as described above. RNA from low expressing (T47D) and high expressing (HCC1954) cell lines were used as positive control and absolute mRNA levels were quantified.
# [6] = system: HCC1954 cells; assay: cell viability, MTT assay; type: cell-based; settings: HCC1954 shPDK1, 6 days
# Method: (§2) Cell viability was measures using the MTT assay. Briefly, 5000 cells were seeded in 96 well plates, treated for 6 days, and assayed using 0,25% MTT (Sigma) and 50 mM sodium succinate (Sigma) solutions during 3 h. Formazan crystals were dissolved with DMSO and absorbance was measured at 570 nm of wavelength.
# [7] = system: JIMT1 cells; assay: cell viability, MTT assay; type: cell-based; settings: JIMT1 shPDK1, 6 days
# Method: as §2
# [8] = system: AKT; assay: kinase activity of immunoprecipitated endogenous AKT; type: cell-based; settings: HCC1954, 4 hr, Crosstide substrate
# Method: as §1
# [9] = system: FOXO3; assay: FOXO-dependent transcription (microarray, RT-PCR, immunofluorescence, luciferase reporter, ChIP-qPCR); type: cell-based; settings: HCC1954 and JIMT1, 1 μM, 4 h, vs DMSO
# Method: B) Enrichment plot for the FOXO3 signature in HCC1954 cells. C) Heat map showing changes in previously described FOXO3 targets.
# G) Luciferase reporter assay in HCC1954 cells stably transduced with the FOXO consensus motif reporter construct treated as indicated for 12 h (RLU, Relative light units). H) ChIP-qPCR assay of FOXO3A binding at TNFSF10A and IRS2 promoters in HCC1954 cells treated as indicated in F. P values are calculated using Student's t-test. Error bars are ±SEM.
# RNA was isolated from cells using the QIAGEN RNeasy kit. For microarray analysis, biotinylated cRNA was prepared according to the standard Illumina protocol. After fragmentation, cRNA was hybridized with Illumina GX HT12 Human Array. Slides were washed and stained in the Illumina instrument following manufactured protocol. Slides were scanned using Illumina Bead Array Reader. Data were analyzed using GenomeStudio software. No normalization and background correction are performed first, then quantile normalization and background correction are done.
# For mRNA expression analysis, cDNA was prepared using the Bio-Rad cDNA synthesis kit. cDNA was amplified by quantitative PCR using SYBR Select Master Mix (Applied Biosystems) in the ViiA 7 Real-Time PCR system. All reactions were carried out in triplicate.
# Lysed cells were sonicated on ice to yield 200-800 bp DNA fragments. […]
# [10] = system: HCC1954 cells; assay: apoptosis: PARP cleavage and caspase 3/7 activity; type: cell-based; settings: HCC1954 shPDK1, BYL719 1 μM, long term
# Description: For Caspase 3/7 activity, the Caspase-Glo® 3/7 Assay kit from Promega was used following manufacturer's instructions. The caspase inhibitor zVAD-fmk was used to inhibit apoptosis in cells and was also obtained from Promega.
# Then, membranes were probed using specific antibodies.
# [11] = system: mTORC1; assay: Western blot of mTORC1 signaling (pS6K, pS6, p4EBP1); type: cell-based
# Description: as §3
compound,measurement,setting,value
Cc1nc(NC(=O)N2CCC[C@H]2C(N)=O)sc1-c1ccnc(C(C)(C)C(F)(F)F)c1 [BYL719],AKT phosphorylation / activity,"[1]; BYL719-resistant cells (HCC1954, JIMT1), 1 μM, 4 h",reduced AKT phosphorylation (S473 and T308); also recorded: effectively suppressed AKT activity
same,pAKT (S473) levels fully decreased,"[1]; CAL-148 and CAL-51 cells, 1 μM, 4 h",fully decreases pAKT levels
same,AKT phosphorylation,[1]; HCT116 PDPK1+/+ and PDPK1−/− cells,decreases AKT phosphorylation
same,endogenous SGK1 kinase activity,[2],remains active
same,"S6 phosphorylation (S240/4) and 4EBP1 (T37/46) in tumors, IHC",[3]; HCC1954 shGFP vs shPDK1 xenografts,inhibited only in shPDK1 xenografts
same,tumor growth,[3]; HCC1954 shGFP xenografts,modest delay in tumor growth
same,tumor growth,[3]; HCC1954 shPDK1 xenografts,durable tumor shrinkage
same,tumor growth,"[3]; HCC1954 xenografts, BYL719 25 mg/kg daily p.o., GSK2334470 100 mg/kg i.p. 3 times/week, SGK1-inh 50 mg/kg daily p.o.",some antitumor activity
same,"pAKT (S473) in tumors, IHC",[3]; tumors collected at the end of the experiment,effectively suppressed AKT phosphorylation (S473); also recorded: sufficient to suppress pAKT
same,cap-dependent translation in PDK1 knockdown cells,[4],decreased cap-dependent translation
same,clinical response by RECIST,[5]; patients with pNDRG1-negative tumors,three had partial responses and eight had stable disease
same,clinical response,"[5]; three patients, tumors with high SGK1, pNDRG1 positive",did not respond to therapy
same,clinical response,"[5]; two patients, medium/low SGK1, pNDRG1 positive",rapidly progressed
same,cell viability in PDK1 knockdown cells,[6],decrease cell viability
same,cell viability in PDK1 knockdown cells,[7],decrease cell viability
same,endogenous AKT kinase activity,[8],completely abrogated
same,changes in gene expression / transcriptomic profile,[9],modest
same,apoptosis markers in PDK1 knockdown cells,[10],induced PARP cleavage (FIG. 2C) and increased caspase 3/7 activity
same,mTORC1 signaling,"[11]; BYL719-resistant cells (HCC1954, JIMT1), 4 h, BYL719 1 μM, GSK2334470 1 μM, SGK1-inh 10 μM",not downstream mTORC1 targets; also recorded: not mTORC1 signaling
same,phosphorylation of mTORC1 downstream targets in PDK1 knockdown cells,"[11]; HCC1954 and JIMT1 shPDK1, BYL719 1 μM, 4 h",decreased the phosphorylation of the mTORC1 downstream targets
same,mTORC1 signaling,[11]; HCT116 PDPK1−/− cells,inhibits mTORC1
same,mTORC1 signaling,[11]; HCT116 parental cells,does not decrease mTORC1 signaling
same,mTORC1 signaling,"[11]; MDA-MB-361 cells overexpressing SGK1, 1 μM, 4 h",maintained mTORC1 signaling
same,AKT phosphorylation and mTORC1 signaling,"[11]; MDA-MB-361 parental cells, 1 μM, 4 h",decreased both AKT phosphorylation and mTORC1 signaling
